# What was measured:
# [1] = Aqueous solubility of curcumin at different pH (FIG. 6A/6B); assay type: physicochemical
# [2] = without any solubility enhancement techniques; cited from earlier work
compound,measurement,setting,value
"COc1cc(/C=C/C(=O)CC(=O)/C=C/c2ccc(O)c(OC)c2)ccc1O [free curcumin, (1E,6E)-1,7-bis(4-hydroxy-3-methoxyphenyl)-1,6-heptadiene-3,5-dione]",aqueous solubility of curcumin (colour of solution),[1]; pH 1.2,absence of soluble curcumin
same,aqueous solubility of curcumin (colour of solution),[1]; pH 4.5,absence of soluble curcumin
same,aqueous solubility of curcumin (colour of solution),[1]; pH 7.0,absence of soluble curcumin
same,aqueous solubility of curcumin (colour of solution),[1]; pH 7.4,absence of soluble curcumin
same,solubility in water,[2],less than 1 μg/ml

# Reference: US9504754B2, “Curcuminoid complexes with enhanced stability, solubility and/or bioavailability” (South Dakota Board of Regents, priority 2013, dated 2016)
